{"source": "ChEMBL document CHEMBL3045984", "about": "“Resistance to HPPD-inhibiting herbicides in a population of waterhemp (Amaranthus tuberculatus) from Illinois, United States” (2011)", "format_in_all_cases": "functional", "key": {"Amaranthus tuberculatus [1]": {"test_system": "Amaranthus tuberculatus", "test": "Herbicidal activity against Amaranthus tuberculatus biotype WCS assessed as decrease in shoot dry weight at 105 g/ha applied as spray during post-emergence after 21 days under green house conditions relative to untreated control", "set-up": "scale not given: the % may be the effect or the level left"}, "Amaranthus tuberculatus [2]": {"test_system": "Amaranthus tuberculatus", "test": "Herbicidal activity against Amaranthus tuberculatus biotype MCR 12 assessed as visual injury at 105 g/ha applied as spray after 14 days under green house conditions relative to untreated control"}, "Amaranthus tuberculatus [3]": {"test_system": "Amaranthus tuberculatus", "test": "Herbicidal activity against Amaranthus tuberculatus biotype WCS assessed as visual injury at 105 g/ha after 7 days applied as spray under green house conditions relative to untreated control"}, "Amaranthus tuberculatus [4]": {"test_system": "Amaranthus tuberculatus", "test": "Herbicidal activity against Amaranthus tuberculatus biotype WCS assessed as visual injury at 315 g/ha applied as spray after 21 days under green house conditions relative to untreated control"}, "Amaranthus tuberculatus [5]": {"test_system": "Amaranthus tuberculatus", "test": "Herbicidal activity against Amaranthus tuberculatus biotype ACR assessed as visual injury at 105 g/ha applied as spray after 7 days under green house conditions relative to untreated control"}, "Amaranthus tuberculatus [6]": {"test_system": "Amaranthus tuberculatus", "test": "Herbicidal activity against Amaranthus tuberculatus biotype MCR 15 assessed as visual injury at 105 g/ha applied as spray after 7 days under green house conditions relative to untreated control"}, "Amaranthus tuberculatus [7]": {"test_system": "Amaranthus tuberculatus", "test": "Herbicidal activity against Amaranthus tuberculatus biotype MCR 12 assessed as visual injury at 105 g/ha applied as spray after 7 days under green house conditions relative to untreated control"}, "Amaranthus tuberculatus [8]": {"test_system": "Amaranthus tuberculatus", "test": "Herbicidal activity against Amaranthus tuberculatus biotype MCR 16 assessed as visual injury at 105 g/ha applied as spray after 7 days under green house conditions relative to untreated control"}, "Amaranthus tuberculatus [9]": {"test_system": "Amaranthus tuberculatus", "test": "Herbicidal activity against Amaranthus tuberculatus biotype ACR assessed as decrease in shoot dry weight applied as spray after 21 days under green house conditions"}, "Amaranthus tuberculatus [10]": {"test_system": "Amaranthus tuberculatus", "test": "Herbicidal activity against Amaranthus tuberculatus biotype WCS assessed as visual injury at 105 g/ha applied as spray after 21 days under green house conditions relative to untreated control"}, "Amaranthus tuberculatus [11]": {"test_system": "Amaranthus tuberculatus", "test": "Herbicidal activity against Amaranthus tuberculatus biotype MCR assessed as decrease in shoot dry weight applied as spray after 21 days under green house conditions"}, "Amaranthus tuberculatus [12]": {"test_system": "Amaranthus tuberculatus", "test": "Herbicidal activity against Amaranthus tuberculatus biotype WCS assessed as decrease in shoot dry weight applied as spray after 21 days under green house conditions"}, "Amaranthus tuberculatus [13]": {"test_system": "Amaranthus tuberculatus", "test": "Herbicidal activity against Amaranthus tuberculatus biotype MCR 15 assessed as visual injury at 105 g/ha applied as spray after 21 days under green house conditions relative to untreated control"}, "Amaranthus tuberculatus [14]": {"test_system": "Amaranthus tuberculatus", "test": "Herbicidal activity against Amaranthus tuberculatus biotype ACR assessed as visual injury at 315 g/ha applied as spray after 21 days under green house conditions relative to untreated control"}, "Amaranthus tuberculatus [15]": {"test_system": "Amaranthus tuberculatus", "test": "Herbicidal activity against Amaranthus tuberculatus biotype ACR assessed as visual injury at 105 g/ha applied as spray after 14 days under green house conditions relative to untreated control"}, "Amaranthus tuberculatus [16]": {"test_system": "Amaranthus tuberculatus", "test": "Herbicidal activity against Amaranthus tuberculatus biotype MCR assessed as mortality at 105 g/ha applied as spray after 21 days under green house conditions relative to untreated control", "details": "504 h"}, "Amaranthus tuberculatus [17]": {"test_system": "Amaranthus tuberculatus", "test": "Herbicidal activity against Amaranthus tuberculatus biotype MCR 15 assessed as visual injury at 105 g/ha applied as spray after 14 days under green house conditions relative to untreated control"}, "Amaranthus tuberculatus [18]": {"test_system": "Amaranthus tuberculatus", "test": "Herbicidal activity against Amaranthus tuberculatus biotype MCR 16 assessed as visual injury at 105 g/ha applied as spray after 21 days under green house conditions relative to untreated control"}, "Amaranthus tuberculatus [19]": {"test_system": "Amaranthus tuberculatus", "test": "Herbicidal activity against Amaranthus tuberculatus biotype MCR assessed as decrease in shoot dry weight at 105 g/ha applied as spray during post-emergence after 21 days under green house conditions relative to untreated control", "set-up": "scale not given: the % may be the effect or the level left"}, "Amaranthus tuberculatus [20]": {"test_system": "Amaranthus tuberculatus", "test": "Herbicidal activity against Amaranthus tuberculatus biotype MCR 16 assessed as visual injury at 105 g/ha applied as spray after 14 days under green house conditions relative to untreated control"}, "Amaranthus tuberculatus [21]": {"test_system": "Amaranthus tuberculatus", "test": "Herbicidal activity against Amaranthus tuberculatus biotype MCR 12 assessed as visual injury at 105 g/ha applied as spray after 21 days under green house conditions relative to untreated control"}, "Amaranthus tuberculatus [22]": {"test_system": "Amaranthus tuberculatus", "test": "Herbicidal activity against Amaranthus tuberculatus biotype ACR assessed as decrease in shoot dry weight at 105 g/ha applied as spray during post-emergence after 21 days under green house conditions relative to untreated control", "set-up": "scale not given: the % may be the effect or the level left"}, "Amaranthus tuberculatus [23]": {"test_system": "Amaranthus tuberculatus", "test": "Herbicidal activity against Amaranthus tuberculatus biotype ACR assessed as visual injury at 105 g/ha applied as spray after 21 days under green house conditions relative to untreated control"}, "Amaranthus tuberculatus [24]": {"test_system": "Amaranthus tuberculatus", "test": "Herbicidal activity against Amaranthus tuberculatus biotype WCS assessed as visual injury at 105 g/ha applied as spray after 14 days under green house conditions relative to untreated control"}, "Amaranthus tuberculatus [25]": {"test_system": "Amaranthus tuberculatus", "test": "Herbicidal activity against Amaranthus tuberculatus biotype MCR assessed as mortality at 315 g/ha applied as spray after 21 days under green house conditions relative to untreated control", "details": "504 h"}, "Amaranthus tuberculatus [26]": {"test_system": "Amaranthus tuberculatus", "test": "Herbicidal activity against Amaranthus tuberculatus biotype MCR 16 assessed as visual injury at 560 g/ha applied as spray after 21 days under green house conditions relative to untreated control"}, "Amaranthus tuberculatus [27]": {"test_system": "Amaranthus tuberculatus", "test": "Herbicidal activity against Amaranthus tuberculatus biotype MCR 15 assessed as visual injury at 560 g/ha applied as spray after 14 days under green house conditions relative to untreated control"}, "Amaranthus tuberculatus [28]": {"test_system": "Amaranthus tuberculatus", "test": "Herbicidal activity against Amaranthus tuberculatus biotype WCS assessed as visual injury at 560 g/ha applied as spray after 21 days under green house conditions relative to untreated control"}, "Amaranthus tuberculatus [29]": {"test_system": "Amaranthus tuberculatus", "test": "Herbicidal activity against Amaranthus tuberculatus biotype ACR assessed as visual injury at 560 g/ha applied as spray after 7 days under green house conditions relative to untreated control"}, "Amaranthus tuberculatus [30]": {"test_system": "Amaranthus tuberculatus", "test": "Herbicidal activity against Amaranthus tuberculatus biotype MCR 15 assessed as visual injury at 560 g/ha applied as spray after 7 days under green house conditions relative to untreated control"}, "Amaranthus tuberculatus [31]": {"test_system": "Amaranthus tuberculatus", "test": "Herbicidal activity against Amaranthus tuberculatus biotype MCR 16 assessed as visual injury at 560 g/ha applied as spray after 7 days under green house conditions relative to untreated control"}, "Amaranthus tuberculatus [32]": {"test_system": "Amaranthus tuberculatus", "test": "Herbicidal activity against Amaranthus tuberculatus biotype WCS assessed as visual injury at 560 g/ha applied as spray after 14 days under green house conditions relative to untreated control"}, "Amaranthus tuberculatus [33]": {"test_system": "Amaranthus tuberculatus", "test": "Herbicidal activity against Amaranthus tuberculatus biotype WCS assessed as visual injury at 560 g/ha applied as spray after 7 days under green house conditions relative to untreated control"}, "Amaranthus tuberculatus [34]": {"test_system": "Amaranthus tuberculatus", "test": "Herbicidal activity against Amaranthus tuberculatus biotype ACR assessed as visual injury at 560 g/ha applied as spray after 21 days under green house conditions relative to untreated control"}, "Amaranthus tuberculatus [35]": {"test_system": "Amaranthus tuberculatus", "test": "Herbicidal activity against Amaranthus tuberculatus biotype MCR 12 assessed as visual injury at 560 g/ha applied as spray after 14 days under green house conditions relative to untreated control"}, "Amaranthus tuberculatus [36]": {"test_system": "Amaranthus tuberculatus", "test": "Herbicidal activity against Amaranthus tuberculatus biotype MCR 16 assessed as visual injury at 560 g/ha applied as spray after 14 days under green house conditions relative to untreated control"}, "Amaranthus tuberculatus [37]": {"test_system": "Amaranthus tuberculatus", "test": "Herbicidal activity against Amaranthus tuberculatus biotype MCR 12 assessed as visual injury at 560 g/ha applied as spray after 21 days under green house conditions relative to untreated control"}, "Amaranthus tuberculatus [38]": {"test_system": "Amaranthus tuberculatus", "test": "Herbicidal activity against Amaranthus tuberculatus biotype MCR 15 assessed as visual injury at 560 g/ha applied as spray after 21 days under green house conditions relative to untreated control"}, "Amaranthus tuberculatus [39]": {"test_system": "Amaranthus tuberculatus", "test": "Herbicidal activity against Amaranthus tuberculatus biotype MCR 12 assessed as visual injury at 560 g/ha applied as spray after 7 days under green house conditions relative to untreated control"}, "Amaranthus tuberculatus [40]": {"test_system": "Amaranthus tuberculatus", "test": "Herbicidal activity against Amaranthus tuberculatus biotype ACR assessed as visual injury at 560 g/ha applied as spray after 14 days under green house conditions relative to untreated control"}}, "data": [{"smiles": "CS(=O)(=O)c1ccc(C(=O)C2C(=O)CCCC2=O)c([N+](=O)[O-])c1", "note": "[MESOTRIONE]", "values": [{"measurement": "Activity", "setting": "Amaranthus tuberculatus [1]", "value": ">90", "unit": "%"}, {"measurement": "Activity", "setting": "Amaranthus tuberculatus [2]", "value": 24, "unit": "%"}, {"measurement": "Activity", "setting": "Amaranthus tuberculatus [3]", "value": 85, "unit": "%"}, {"measurement": "Activity", "setting": "Amaranthus tuberculatus [4]", "value": 100, "unit": "%"}, {"measurement": "Activity", "setting": "Amaranthus tuberculatus [5]", "value": 63, "unit": "%"}, {"measurement": "Activity", "setting": "Amaranthus tuberculatus [6]", "value": 37, "unit": "%"}, {"measurement": "Activity", "setting": "Amaranthus tuberculatus [7]", "value": 40, "unit": "%"}, {"measurement": "Activity", "setting": "Amaranthus tuberculatus [8]", "value": 48, "unit": "%"}, {"measurement": "GR50", "setting": "Amaranthus tuberculatus [9]", "value": 4.9, "unit": "g/ha"}, {"measurement": "Activity", "setting": "Amaranthus tuberculatus [10]", "value": 100, "unit": "%"}, {"measurement": "GR50", "setting": "Amaranthus tuberculatus [11]", "value": 48.5, "unit": "g/ha"}, {"measurement": "GR50", "setting": "Amaranthus tuberculatus [12]", "value": 1.4, "unit": "g/ha"}, {"measurement": "Activity", "setting": "Amaranthus tuberculatus [13]", "value": 26, "unit": "%"}, {"measurement": "Activity", "setting": "Amaranthus tuberculatus [14]", "value": 100, "unit": "%"}, {"measurement": "Activity", "setting": "Amaranthus tuberculatus [15]", "value": 90, "unit": "%"}, {"measurement": "mortality at 105 g/ha", "setting": "Amaranthus tuberculatus [16]", "value": 0, "unit": "%"}, {"measurement": "Activity", "setting": "Amaranthus tuberculatus [17]", "value": 36, "unit": "%"}, {"measurement": "Activity", "setting": "Amaranthus tuberculatus [18]", "value": 27, "unit": "%"}, {"measurement": "Activity", "setting": "Amaranthus tuberculatus [19]", "value": 60, "unit": "%"}, {"measurement": "Activity", "setting": "Amaranthus tuberculatus [20]", "value": 45, "unit": "%"}, {"measurement": "Activity", "setting": "Amaranthus tuberculatus [21]", "value": 13, "unit": "%"}, {"measurement": "Activity", "setting": "Amaranthus tuberculatus [22]", "value": ">90", "unit": "%"}, {"measurement": "Activity", "setting": "Amaranthus tuberculatus [23]", "value": 88, "unit": "%"}, {"measurement": "Activity", "setting": "Amaranthus tuberculatus [24]", "value": 96, "unit": "%"}, {"measurement": "mortality at 315 g/ha", "setting": "Amaranthus tuberculatus [25]", "value": 33, "unit": "%"}]}, {"smiles": "CCNc1nc(Cl)nc(NC(C)C)n1", "note": "[ATRAZINE]", "values": [{"measurement": "Activity", "setting": "Amaranthus tuberculatus [26]", "value": 1, "unit": "%"}, {"measurement": "Activity", "setting": "Amaranthus tuberculatus [27]", "value": 2, "unit": "%"}, {"measurement": "Activity", "setting": "Amaranthus tuberculatus [28]", "value": 81, "unit": "%"}, {"measurement": "Activity", "setting": "Amaranthus tuberculatus [29]", "value": 14, "unit": "%"}, {"measurement": "Activity", "setting": "Amaranthus tuberculatus [30]", "value": 5, "unit": "%"}, {"measurement": "Activity", "setting": "Amaranthus tuberculatus [31]", "value": 5, "unit": "%"}, {"measurement": "Activity", "setting": "Amaranthus tuberculatus [32]", "value": 87, "unit": "%"}, {"measurement": "Activity", "setting": "Amaranthus tuberculatus [33]", "value": 83, "unit": "%"}, {"measurement": "Activity", "setting": "Amaranthus tuberculatus [34]", "value": 4, "unit": "%"}, {"measurement": "Activity", "setting": "Amaranthus tuberculatus [35]", "value": 4, "unit": "%"}, {"measurement": "Activity", "setting": "Amaranthus tuberculatus [36]", "value": 1, "unit": "%"}, {"measurement": "Activity", "setting": "Amaranthus tuberculatus [37]", "value": 4, "unit": "%"}, {"measurement": "Activity", "setting": "Amaranthus tuberculatus [38]", "value": 1, "unit": "%"}, {"measurement": "Activity", "setting": "Amaranthus tuberculatus [39]", "value": 7, "unit": "%"}, {"measurement": "Activity", "setting": "Amaranthus tuberculatus [40]", "value": 8, "unit": "%"}]}]}
